According to patent US20060246095A1, “Multiepitope polypeptides for cancer immunotherapy” (HADASIT MEDICAL RESEARCH SERVICES & DEVELOPMENT LTD., priority 2003, published 2006):

How the values were obtained:
HHD mice = conditions: HLA-A2.1-restricted; cited from earlier work
MHC = conditions: cited from earlier work
[1] = test system: CTLs in blood lymphocytes of breast carcinoma patients; conditions: personal communications; cited from earlier work
[2] = test system: T cell clone CK3H6 (A2 restricted gp100 epitope 209-217); test: Recognition assay for peptide presentation by DC (IFN-γ release ELISA), T cell clone CK3H6; type: cell-based, human
Procedure: (§1) Dendritic cells were isolated from cytopheresis MNCs of melanoma patients with the HLA haplotypes HIA-A*0201 and HLA-DRβ1*0401. DC were generated from plastic adherent PBMCs cultured in RPMI with 10% human AB-serum, L-glutamine, penicillin-streptomycin, supplemented with GM-CSF 1000 IU/ml and IL-4 1000 IU/ml. By day 6, immature DC were harvested for electroporation.
(§2) 2.5-3×10^6 DC were re-suspended in 100 μl nucleofector solution and added to 5 μg of DNA plasmid in 2-mm electrode gap cuvettes. Transfected DC were immediately plated with CM containing GM/IL4 or let mature using TNFα 100 ng/ml and PGE2 1000 ng/ml. GFP-transfected DCs were collected 16-24 hours later for FACS analysis.
(§3) DC were pulsed with 1 μg/ml of the relevant peptides at 1×10^6 cells/ml. Stimulants were added after 1 hour incubation without washing the peptide.
CK3H6 which recognizes the A2 restricted gp100 epitope 209-217.
(§4) T cell clones were co-incubated with DC in flat 96-well plate for 24 hours. DC were plated immediately after their transfection or pulsing in 6 separated plates, in the presence of GM CSF and IL-4. 1×10^5 T cells were added to 1×10^5 pulsed or transfected DC. In the longitudinal study, T cell clones were added to the transfected/pulsed DC at the following time points: T0=immediately, +12=after 12 hours, 24, 36, 48 and 72 hours. Supernatants were collected after overnight incubation. Interferon gamma release assay was performed to evaluate T cell stimulation using the ELISA method, results are presented in pg/ml.
(§5) Lactacystin was added to DC at concentrations of 25 μM and 50 μM, 4 hours post transfection. DC were incubated with lactacystin for 70 minutes and then washed twice.
(§6) Responding T cells were added after washing the lactacystin and co-incubated. Supernatents were collected after 20 hours.
(§7) For recognition assay of DC epitope presentation, 1×10^5 cells from different T cell clones, that were grown from PBMCs of patients, and were restricted to particular melanoma antigen peptides, were co-incubated with 1×10^5 pulsed or transfected DC, in the presence of GM-CSF and IL-4. T cell clones were added to the transfected/pulsed DC at the following time points: T=0 immediately, T=12, 24, 36, 48, 72 hours. Supernatant was collected after overnight incubation and was subjected to interferon gamma release assay, in order to evaluate the specific T cell activity towards the particular peptide presented by the DC cells.
(§8) The results shown in the following tables represent the amount of Interferon-γ (pg/ml) secreted to the culture medium as an index for T cell stimulation.

[3] = test system: T cell clone BR-B8 (DR4-restricted gp100 epitope 44-59); test: Recognition assay for peptide presentation by DC (IFN-γ release ELISA), clone BR-B8; type: cell-based, human; conditions: control plate; peptide-pulsed DC; clone BR-B8
Procedure: as §1, §2
pcDNA-MEP and pcDNA-gp100 were co-transfected to detect Class II antigen presentation as an internal control.
BR-B8 which recognizes the DR4-restricted gp100 epitope 44-59.
as §4, §5, §6, §7, §8

[4] = test system: TIL 1383 (A2 restricted tyrosinase epitope 369-377); test: Recognition assay for peptide presentation by DC (IFN-γ release ELISA), TIL 1383; type: cell-based, human; conditions: control plate; peptide-pulsed DC; TIL 1383
Procedure: as §1, §2, §3
TIL 1383 which recognizes the A2 restricted tyrosinase epitope 369-377.
as §4, §5, §6, §7, §8

[5] = test system: TIL 1940 (A2 restricted MART-1 epitope 27-35); test: Recognition assay for peptide presentation by DC (IFN-γ release ELISA), TIL 1940; type: cell-based, human; conditions: TIL 1940
Procedure: as §1, §2, §3
TIL 1940 which recognizes the A2 restricted MART-1 epitope 27-35.
as §4, §5, §6, §7, §8

[6] = test system: T cell clone RB-154 (gp100 154-162 peptide); test: Recognition assay for peptide presentation by DC (IFN-γ release ELISA), clone RB-154; type: cell-based, human; conditions: control plate; peptide-pulsed DC; clone RB-154
Procedure: as §1, §2, §3, §4, §7, §8

[7] = test system: peripheral blood lymphocytes of breast carcinoma patients; conditions: cited from earlier work
mice = conditions: cited from earlier work
[8] = test system: DC with CM (no T cell clone); test: Recognition assay, CM in place of a T cell clone (IFN-γ background of DC); type: cell-based, human; conditions: transfected or peptide-pulsed DC, CM instead of T cell clone
Procedure: as §1, §2, §3, §4, §7, §8

specific T cell clones = test: Recognition assay for peptide presentation by DC, statements on T cell clones overall; type: cell-based, human; conditions: MEP-transfected DC, Lactacystin 25 μM and 50 μM
Procedure: as §4, §5, §6
Efficiency of epitope presentation and stimulation of specific T cell clone proliferation were evaluated by comparing the specific T cell clones response to the DC transfected with the multiepitope, to DC that were pulsed with specific peptides or DC transfected with full length melanoma associated antigens (gp100 and MART-1), using the recognition assay. […]

[9] = control plate, peptide-pulsed DC, T cell clone CK3H6
[10] = control plate, peptide-pulsed DC
[11] = transfected or peptide-pulsed DC, Donor 1, T = 12 hours, CK3H6
[12] = transfected or peptide-pulsed DC, Donor 1, T = 24 hours, CK3H6
[13] = transfected or peptide-pulsed DC, Donor 1, T = 36 hours, CK3H6
[14] = transfected or peptide-pulsed DC, Donor 1, T = 48 hours, CK3H6
[15] = transfected or peptide-pulsed DC, Donor 1, T = 72 hours, CK3H6
[16] = transfected or peptide-pulsed DC, Donor 2, T = 12 hours, CK3H6
[17] = transfected or peptide-pulsed DC, Donor 2, T = 24 hours, CK3H6
[18] = transfected or peptide-pulsed DC, Donor 2, T = 36 hours, CK3H6
[19] = transfected or peptide-pulsed DC, Donor 2, T = 48 hours, CK3H6
[20] = transfected or peptide-pulsed DC, Donor 2, T = 72 hours, CK3H6
[21] = transfected or peptide-pulsed DC, Donor 1, T = 12 hours
[22] = transfected or peptide-pulsed DC, Donor 1, T = 24 hours
[23] = transfected or peptide-pulsed DC, Donor 1, T = 36 hours
[24] = transfected or peptide-pulsed DC, Donor 1, T = 48 hours
[25] = transfected or peptide-pulsed DC, Donor 1, T = 72 hours
[26] = transfected or peptide-pulsed DC, Donor 2, T = 12 hours
[27] = transfected or peptide-pulsed DC, Donor 2, T = 24 hours
[28] = transfected or peptide-pulsed DC, Donor 2, T = 36 hours
[29] = transfected or peptide-pulsed DC, Donor 2, T = 48 hours
[30] = transfected or peptide-pulsed DC, Donor 2, T = 72 hours

Sequence of MHC (P61769 21-119): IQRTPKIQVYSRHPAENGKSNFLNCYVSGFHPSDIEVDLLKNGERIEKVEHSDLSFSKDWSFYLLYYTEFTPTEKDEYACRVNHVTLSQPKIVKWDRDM

MUC1/A7: peptide A7 (NLTISDVSV) of MUC1, SEQ ID NO: 26 (listed as Homo sapiens)
CTL induced upon vaccination, lysis of human carcinoma lines (HHD mice): effectively lysed the human carcinoma lines
MHC-binding affinity (MHC): high
activation of CTLs in blood lymphocytes, patients responding [1]: 2/4

gp 100 154-162: peptide 154-162 of gp100, SEQ ID NO: 24
Interferon-γ secreted to the culture medium [2, 9]: 7 pg/mL
Interferon-γ secreted to the culture medium [3]: 1 pg/mL
Interferon-γ secreted to the culture medium [4]: 6 pg/mL
Interferon-γ secreted to the culture medium [5, 10]: 6 pg/mL
Interferon-γ secreted to the culture medium [6]: >2000 pg/mL

TYR 369-377: peptide 369-377 derived from Tyrosinase, SEQ ID NO: 17
Interferon-γ secreted to the culture medium [2, 9]: 1 pg/mL
Interferon-γ secreted to the culture medium [3]: 1 pg/mL
Interferon-γ secreted to the culture medium [4]: 69 pg/mL
Interferon-γ secreted to the culture medium [5, 10]: 1 pg/mL
Interferon-γ secreted to the culture medium [6]: 0 pg/mL

BA46-6: peptide BA46-6 (NLFETPVEA) of Lactadherin, SEQ ID NO: 27 (listed as Homo sapiens)
specific CTL activity [7]: elicited specific CTL activity
specific CTL activity (mice): elicited specific CTL activity

MART-1 27-35: peptide 27-35 of MART-1, SEQ ID NO: 18
Interferon-γ secreted to the culture medium [2, 9]: 1 pg/mL
Interferon-γ secreted to the culture medium [2, 11]: 11 pg/mL
Interferon-γ secreted to the culture medium [2, 12]: 6 pg/mL
Interferon-γ secreted to the culture medium [2, 13]: 10 pg/mL
Interferon-γ secreted to the culture medium [2, 14]: 0 pg/mL
Interferon-γ secreted to the culture medium [2, 15]: 0 pg/mL
Interferon-γ secreted to the culture medium [2, 16]: 10 pg/mL
Interferon-γ secreted to the culture medium [2, 17]: 10 pg/mL
Interferon-γ secreted to the culture medium [2, 18]: 8 pg/mL
Interferon-γ secreted to the culture medium [2, 19]: 0 pg/mL
Interferon-γ secreted to the culture medium [2, 20]: 0 pg/mL
Interferon-γ secreted to the culture medium [3]: 1 pg/mL
Interferon-γ secreted to the culture medium ([8]; Donor 1, T = 12 hours): 10 pg/mL
Interferon-γ secreted to the culture medium ([8]; Donor 1, T = 48 hours): 0 pg/mL
Interferon-γ secreted to the culture medium ([8]; Donor 1, T = 72 hours): 0 pg/mL
Interferon-γ secreted to the culture medium ([8]; Donor 2, T = 12 hours): 9 pg/mL
Interferon-γ secreted to the culture medium ([8]; Donor 2, T = 24 hours): 7 pg/mL
Interferon-γ secreted to the culture medium ([8]; Donor 2, T = 36 hours): 8 pg/mL
Interferon-γ secreted to the culture medium ([8]; Donor 2, T = 48 hours): 0 pg/mL
Interferon-γ secreted to the culture medium ([8]; Donor 2, T = 72 hours): 0 pg/mL
Interferon-γ secreted to the culture medium [4]: 1 pg/mL
Interferon-γ secreted to the culture medium [5, 10]: >2000 pg/mL
Interferon-γ secreted to the culture medium [5, 21]: 9 pg/mL
Interferon-γ secreted to the culture medium [5, 22]: 435 pg/mL
Interferon-γ secreted to the culture medium [5, 23]: 99 pg/mL
Interferon-γ secreted to the culture medium [5, 24]: 0 pg/mL
Interferon-γ secreted to the culture medium [5, 25]: 0 pg/mL
Interferon-γ secreted to the culture medium [5, 26]: 448 pg/mL
Interferon-γ secreted to the culture medium [5, 27]: 254 pg/mL
Interferon-γ secreted to the culture medium [5, 28]: 49 pg/mL
Interferon-γ secreted to the culture medium [5, 29]: 0 pg/mL
Interferon-γ secreted to the culture medium [5, 30]: 0 pg/mL
Interferon-γ secreted to the culture medium [6]: 1 pg/mL

gp 100 209-217: peptide 209-217 of gp100, SEQ ID NO: 16
Interferon-γ secreted to the culture medium [2, 9]: >2000 pg/mL
Interferon-γ secreted to the culture medium [2, 11]: >2000 pg/mL
Interferon-γ secreted to the culture medium [2, 12]: 31 pg/mL
Interferon-γ secreted to the culture medium [2, 13]: 12 pg/mL
Interferon-γ secreted to the culture medium [2, 14]: 0 pg/mL
Interferon-γ secreted to the culture medium [2, 15]: 0 pg/mL
Interferon-γ secreted to the culture medium [2, 16]: >2000 pg/mL
Interferon-γ secreted to the culture medium [2, 17]: 18 pg/mL
Interferon-γ secreted to the culture medium [2, 18]: 11 pg/mL
Interferon-γ secreted to the culture medium [2, 19]: 0 pg/mL
Interferon-γ secreted to the culture medium [2, 20]: 0 pg/mL
Interferon-γ secreted to the culture medium [3]: 1 pg/mL
Interferon-γ secreted to the culture medium ([8]; Donor 1, T = 12 hours): 9 pg/mL
Interferon-γ secreted to the culture medium ([8]; Donor 1, T = 48 hours): 0 pg/mL
Interferon-γ secreted to the culture medium ([8]; Donor 1, T = 72 hours): 0 pg/mL
Interferon-γ secreted to the culture medium ([8]; Donor 2, T = 12 hours): 8 pg/mL
Interferon-γ secreted to the culture medium ([8]; Donor 2, T = 24 hours): 6 pg/mL
Interferon-γ secreted to the culture medium ([8]; Donor 2, T = 36 hours): 8 pg/mL
Interferon-γ secreted to the culture medium ([8]; Donor 2, T = 48 hours): 0 pg/mL
Interferon-γ secreted to the culture medium ([8]; Donor 2, T = 72 hours): 0 pg/mL
Interferon-γ secreted to the culture medium [4]: 1 pg/mL
Interferon-γ secreted to the culture medium [5, 10]: 1 pg/mL
Interferon-γ secreted to the culture medium [5, 21]: 10 pg/mL
Interferon-γ secreted to the culture medium [5, 22]: 1 pg/mL
Interferon-γ secreted to the culture medium [5, 23]: 13 pg/mL
Interferon-γ secreted to the culture medium [5, 24]: 0 pg/mL
Interferon-γ secreted to the culture medium [5, 25]: 0 pg/mL
Interferon-γ secreted to the culture medium [5, 26]: 12 pg/mL
Interferon-γ secreted to the culture medium [5, 27]: 6 pg/mL
Interferon-γ secreted to the culture medium [5, 28]: 7 pg/mL
Interferon-γ secreted to the culture medium [5, 29]: 0 pg/mL
Interferon-γ secreted to the culture medium [5, 30]: 0 pg/mL
Interferon-γ secreted to the culture medium [6]: 1 pg/mL

CC(=O)N[C@@H](CSC(=O)[C@]1([C@@H](O)C(C)C)NC(=O)[C@H](C)[C@@H]1O)C(=O)O [Lactacystin]
effect of proteasomal inhibition on epitope expression (specific T cell clones): decreased the epitope expression of MEP-Mel to background level

BA46-7: peptide BA46-7 (GLQHWVPEL) of Lactadherin, SEQ ID NO: 28 (listed as Homo sapiens)
specific CTL activity [7]: elicited specific CTL activity
specific CTL activity (mice): elicited specific CTL activity

MUC1/D6: peptide D6 (LLLTVLTVV) of MUC1, SEQ ID NO: 25 (listed as Homo sapiens)
CTL induced upon vaccination, lysis of human carcinoma lines (HHD mice): effectively lysed the human carcinoma lines
MHC-binding affinity (MHC): high
activation of CTLs in blood lymphocytes, patients responding [1]: 3/4
